# Results as given in patent publication US12686687B2, “Compounds and uses thereof” (Foghorn Therapeutics Inc., priority 2019, dated 2026).
# Biological target: T1, Nanoluciferase-BRD9 fusion protein (3×FLAG-NLuc-BRD9) in SYO-1 cells (Homo sapiens, UniProt Q9H8M2)
# T1 construct: expressed in transfected cells; host or cells: SYO-1
# T1 sequence (Q9H8M2 1-597): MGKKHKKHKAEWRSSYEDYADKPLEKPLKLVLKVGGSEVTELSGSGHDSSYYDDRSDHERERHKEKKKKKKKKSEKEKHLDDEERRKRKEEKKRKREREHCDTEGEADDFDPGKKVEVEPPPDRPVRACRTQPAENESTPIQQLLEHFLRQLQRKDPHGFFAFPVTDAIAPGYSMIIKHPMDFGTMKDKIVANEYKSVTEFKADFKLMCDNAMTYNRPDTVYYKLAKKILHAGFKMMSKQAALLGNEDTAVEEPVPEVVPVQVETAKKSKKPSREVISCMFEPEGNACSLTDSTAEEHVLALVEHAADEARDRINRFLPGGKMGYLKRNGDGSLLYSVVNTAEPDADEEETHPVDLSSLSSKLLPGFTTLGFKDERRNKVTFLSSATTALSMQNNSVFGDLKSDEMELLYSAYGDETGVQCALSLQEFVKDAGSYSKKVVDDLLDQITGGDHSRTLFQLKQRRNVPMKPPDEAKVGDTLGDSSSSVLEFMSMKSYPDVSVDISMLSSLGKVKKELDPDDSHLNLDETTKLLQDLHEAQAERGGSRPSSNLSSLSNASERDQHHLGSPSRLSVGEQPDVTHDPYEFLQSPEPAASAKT
# Assay: SYO1 BRD9 NanoLuc degradation assay
# Assay type: cell-based
# Settings: Table 6B; SYO-1 cells expressing 3×FLAG-NLuc-BRD9, 6 hours incubation, 1 μM top dose; read-out: SYO1 BRD9-NanoLuc degradation IC50
# Method: Procedure: A stable SYO-1 cell line expressing 3×FLAG-NLuc-BRD9 was generated. On day 0 cells were seeded in 30 μL media into each well of 384-well cell culture plates. The seeding density was 8000 cells/well. On day 1, cells were treated with 30 nL DMSO or 30 nL of 3-fold serially DMSO-diluted compounds (10 points in duplicates with 1 μM as final top dose). Subsequently plates were incubated for 6 hours in a standard tissue culture incubator and equilibrated at room temperature for 15 minutes. Nanoluciferase activity was measured by adding 15 μL of freshly prepared Nano-Glo Luciferase Assay Reagent (Promega N1130), shaking the plates for 10 minutes and reading the bioluminescence using an EnVision reader. • Results: The Inhibition % was calculated using the following formula: % Inhibition=100×(LumHC−LumSample)/(LumHC−LumLC). DMSO treated cells are employed as High Control (HC) and 1 μM of a known BRD9 degrader standard treated cells are employed as Low Control (LC).
row,SMILES,DC50 [nM]
1,COc1cc(-c2cn(C)c(=O)c3cc(C(=O)NCC4CC5(C4)CN(C(=O)CCN4CCN(c6ccc7c(c6)C(=O)N(C6CCC(=O)NC6=O)C7=O)CC4)C5)sc23)cc(OC)c1CN(C)C (stereo not drawn) [Compound D51],> 10
2,COc1cc(-c2cn(C)c(=O)c3cc(C(=O)NCC4CC5(C4)CN(CCCN4CCN(c6ccc7c(c6)C(=O)N(C6CCC(=O)NC6=O)C7=O)CC4)C5)sc23)cc(OC)c1CN(C)C (stereo not drawn) [Compound D52],> 10
3,COc1cc(-c2cn(C)c(=O)c3cc(C(=O)NCC4CC5(C4)CN(CCN4CCN(c6ccc7c(c6)C(=O)N(C6CCC(=O)NC6=O)C7=O)CC4)C5)sc23)cc(OC)c1CN(C)C (stereo not drawn) [Compound D53],> 10
4,COc1cc(-c2cn(C)c(=O)c3cc(C(=O)NC4CCC45CCN(C(=O)CCN4CCN(c6ccc7c(c6)C(=O)N(C6CCC(=O)NC6=O)C7=O)CC4)CC5)sc23)cc(OC)c1CN(C)C (stereo not drawn) [Compound D54],> 100
5,COc1cc(-c2cn(C)c(=O)c3cc(C(=O)NC4CCC45CCN(CCCN4CCN(c6ccc7c(c6)C(=O)N(C6CCC(=O)NC6=O)C7=O)CC4)CC5)sc23)cc(OC)c1CN(C)C (stereo not drawn) [Compound D55],> 100
6,COc1cc(-c2cn(C)c(=O)c3cc(C(=O)NCC4CC45CCN(CCCN4CCN(c6ccc7c(c6)C(=O)N(C6CCC(=O)NC6=O)C7=O)CC4)CC5)sc23)cc(OC)c1CN(C)C (stereo not drawn) [Compound D56],> 10
7,COc1cc(-c2cn(C)c(=O)c3cc(C(=O)NCC4CC45CCN(CCN4CCN(c6ccc7c(c6)C(=O)N(C6CCC(=O)NC6=O)C7=O)CC4)CC5)sc23)cc(OC)c1CN(C)C (stereo not drawn) [Compound D57],< 10
8,COc1cc(-c2cn(C)c(=O)c3cc(C(=O)NC4CCC5CN(C(=O)CCN6CCN(c7ccc8c(c7)C(=O)N(C7CCC(=O)NC7=O)C8=O)CC6)CC54)sc23)cc(OC)c1CN(C)C (stereo not drawn) [Compound D58],> 10
9,COc1cc(-c2cn(C)c(=O)c3cc(NC(=O)C4CCN(CCCCCOc5cccc6c5C(=O)N(C5CCC(=O)NC5=O)C6=O)CC4(F)F)sc23)cc(OC)c1CN(C)C (stereo not drawn) [Compound D59],> 10
10,COc1cc(-c2cn(C)c(=O)c3cc(C(=O)NC4CCN(CCCN5CCN(c6ccc7c(c6)C(=O)N(C6CCC(=O)NC6=O)C7=O)CC5)CC4(F)F)sc23)cc(OC)c1CN(C)C (stereo not drawn) [Compound D60],< 10
11,COc1cc(-c2cn(C)c(=O)c3cc(C(=O)NCC4CC5(CCN(C(=O)CCN6CCN(c7ccc8c(c7)C(=O)N(C7CCC(=O)NC7=O)C8=O)CC6)CC5)O4)sc23)cc(OC)c1CN(C)C (stereo not drawn) [Compound D61],> 100
12,COc1cc(-c2cn(C)c(=O)c3cc(C(=O)NCC4CC5(CCN(CCN6CCN(c7ccc8c(c7)C(=O)N(C7CCC(=O)NC7=O)C8=O)CC6)CC5)O4)sc23)cc(OC)c1CN(C)C (stereo not drawn) [Compound D62],> 10
13,COc1cc(-c2cn(C)c(=O)c3cc(C(=O)NC4C[C@@H]5CN(C(=O)CCN6CCN(c7ccc8c(c7)C(=O)N(C7CCC(=O)NC7=O)C8=O)CC6)C[C@H]45)sc23)cc(OC)c1CN(C)C (stereo partly drawn) [Compound D63],> 100
14,COc1cc(-c2cn(C)c(=O)c3cc(C(=O)NC4C[C@@H]5CN(CCN6CCN(c7ccc8c(c7)C(=O)N(C7CCC(=O)NC7=O)C8=O)CC6)C[C@H]45)sc23)cc(OC)c1CN(C)C (stereo partly drawn) [Compound D64],> 100
15,COc1cc(-c2cn(C)c(=O)c3cc(C(=O)NC4CC5(CCN(CCN6CCN(c7ccc8c(c7)C(=O)N([C@@H]7CCC(=O)NC7=O)C8=O)CC6)C5)C4)sc23)cc(OC)c1CN(C)C (stereo partly drawn) [Compound D65],< 10
16,COc1cc(-c2cn(C)c(=O)c3cc(C(=O)NC4CC5(CCN(CCN6CCN(c7ccc8c(c7)C(=O)N([C@H]7CCC(=O)NC7=O)C8=O)CC6)C5)C4)sc23)cc(OC)c1CN(C)C (stereo partly drawn) [Compound D66],< 10
17,COc1cc(-c2cn(C)c(=O)c3cc(C(=O)NCC4CC45CCN(C(=O)CCN4CCN(c6ccc7c(c6)C(=O)N(C6CCC(=O)NC6=O)C7=O)CC4)CC5)sc23)cc(OC)c1CN(C)C (stereo not drawn) [Compound D67],> 10

row,SMILES,DC50 [nM]
1,COc1cc(-c2cn(C)c(=O)c3cc(C(=O)NC4CC5CC4CN5C(=O)CCN4CCN(c5ccc6c(c5)C(=O)N(C5CCC(=O)NC5=O)C6=O)CC4)sc23)cc(OC)c1CN(C)C (stereo not drawn) [Compound D68],> 10
2,COc1cc(-c2cn(C)c(=O)c3cc(C(=O)NC4CC5CC4CN5CCCN4CCN(c5ccc6c(c5)C(=O)N(C5CCC(=O)NC5=O)C6=O)CC4)sc23)cc(OC)c1CN(C)C (stereo not drawn) [Compound D69],> 10
3,COc1cc(-c2cn(C)c(=O)c3cc(C(=O)NC4CC5CC4CN5CCN4CCN(c5ccc6c(c5)C(=O)N(C5CCC(=O)NC5=O)C6=O)CC4)sc23)cc(OC)c1CN(C)C (stereo not drawn) [Compound D70],< 10
4,COc1cc(-c2cn(C)c(=O)c3cc(NC4CCN(C(=O)CCCCOc5ccc6c(c5)C(=O)N(C5CCC(=O)NC5=O)C6=O)CC4)sc23)cc(OC)c1CN(C)C (stereo not drawn) [Compound D71],> 10
5,COc1cc(-c2cn(C)c(=O)c3cc(C(=O)NC4CC5(CCN(C(=O)CCN6CCN(c7ccc8c(c7)C(=O)N(C7CCC(=O)NC7=O)C8=O)CC6)C5)C4)sc23)cc(OC)c1CN(C)C (stereo not drawn) [Compound D72],< 10
6,COc1cc(-c2cn(C)c(=O)c3cc(C(=O)NC4CC5(CCN(CCCN6CCN(c7ccc8c(c7)C(=O)N(C7CCC(=O)NC7=O)C8=O)CC6)C5)C4)sc23)cc(OC)c1CN(C)C (stereo not drawn) [Compound D73],< 10
7,COc1cc(-c2cn(C)c(=O)c3cc(C(=O)NC4CC5(C4)CN(C(=O)CCN4CCN(c6ccc7c(c6)C(=O)N(C6CCC(=O)NC6=O)C7=O)CC4)C5)sc23)cc(OC)c1CN(C)C (stereo not drawn) [Compound D74],< 10
8,COc1cc(-c2cn(C)c(=O)c3cc(C(=O)NC4CC5(C4)CN(CCCN4CCN(c6ccc7c(c6)C(=O)N(C6CCC(=O)NC6=O)C7=O)CC4)C5)sc23)cc(OC)c1CN(C)C (stereo not drawn) [Compound D75],< 10
9,COc1cc(-c2cn(C)c(=O)c3cc(C(=O)NC4CC5CN(C(=O)CCN6CCN(c7ccc8c(c7)C(=O)N(C7CCC(=O)NC7=O)C8=O)CC6)CC5C4)sc23)cc(OC)c1CN(C)C (stereo not drawn) [Compound D76],> 10
10,COc1cc(-c2cn(C)c(=O)c3cc(C(=O)NC4CCN(C(=O)CN5CCN(c6ccc7c(c6)C(=O)N(C6CCC(=O)NC6=O)C7=O)CC5)CC4)sc23)cc(OC)c1CN(C)C (stereo not drawn) [Compound D77],< 10
11,COc1cc(-c2cn(C)c(=O)c3cc(C(=O)NC4CCN(C(=O)CCN5CCN(c6ccc7c(c6)C(=O)N(C6CCC(=O)NC6=O)C7=O)CC5)CC4)sc23)cc(OC)c1CN(C)C (stereo not drawn) [Compound D78],< 10
12,COc1cc(-c2cn(C)c(=O)c3cc(C(=O)NC4CCN(CCN5CCN(c6ccc7c(c6)C(=O)N(C6CCC(=O)NC6=O)C7=O)CC5)CC4(F)F)sc23)cc(OC)c1CN(C)C (stereo not drawn) [Compound D79],< 10
13,COc1cc(-c2cn(C)c(=O)c3cc(C(=O)NC4CCC(N(C)CCCCOc5cccc6c5C(=O)N(C5CCC(=O)NC5=O)C6=O)CC4)sc23)cc(OC)c1CN(C)C (stereo not drawn) [Compound D80],> 100
14,COc1cc(-c2cn(C)c(=O)c3cc(C(=O)NCC4CCN(CCCCOc5cccc6c5C(=O)N(C5CCC(=O)NC5=O)C6=O)CC4)sc23)cc(OC)c1CN(C)C (stereo not drawn) [Compound D81],> 100
15,COc1cc(-c2cn(C)c(=O)c3cc(C(=O)NC4CC5CC4CN5CCCCCOc4cccc5c4C(=O)N(C4CCC(=O)NC4=O)C5=O)sc23)cc(OC)c1CN(C)C (stereo not drawn) [Compound D82],> 100
16,COc1cc(-c2cn(C)c(=O)c3cc(C(=O)NC4CCN(CC(F)(F)CCCOc5ccc6c(c5)C(=O)N(C5CCC(=O)NC5=O)C6=O)CC4)sc23)cc(OC)c1CN(C)C (stereo not drawn) [Compound D83],< 10
